Results reported in US20250011272A1, “LONG-CHAIN COMPOUND THAT ACTS ON ACLY, PREPARATION METHOD THEREFOR AND USE THEREOF” (SHANGHAIINSTITUTE OF MATERIA MEDICA, CHINESE ACADEMY OF …, priority 2021, published 2025).

These compounds were tested on NCI-H358 cells (assay: MTS cell proliferation assay, H358). Settings: H358, 72 hours, 1% FBS, read-out: IC50, inhibition of proliferation, H358.
Type: cell-based, human
Description: (§1) Experimental materials: NCI-H358 cells (H358, human non-small cell lung cancer cells) were purchased from the cell bank/stem cell bank of the Chinese Academy of Sciences; RPMI-1640 culture medium (GIBCO, product number 3180002), and human tumor cell non-small cell lung cancer cell A549 were gifted by the research group of researcher Li Jia from SHANGHAI INSTITUTE OF MATERIA MEDICA, CHINESE ACADEMY OF SCIENCES. CellTier 96® The Aquarius One Solution Cell Promotion Assay (MTS) was purchased from Promega #G3581.
(§2) Experimental principle: CellTier 96 ® AQueous One Solution Cell Proliferation Assay (MTS) colorimetric method was used to detect cell proliferation. This analysis method is based on the tetrazole compound (3-(4,5-dimethylthiazol-2-yl)-5-(3-carboxymethoxyphenyl)-2-(4-sulfophenyl)-2H-tetrazolium, internal salt; MTS). The conversion of yellow MTS to blue purple water-soluble formazan is catalyzed by dehydrogenase, which exists in living cells with metabolic activity; Dead cells cannot complete the transformation from MTS to formamide. The amount of formazan determined by absorbance at 490 nm is directly proportional to the number of live cells in culture.
(§3) Sample processing: Dissolve the sample in DMSO and store it at low temperature.
(§4) Cell survival rate was detected by using MTS method, that is, adherent cells growing in logarithmic phase were digested with 0.025% trypsin, and counted; 80 μl cells were inoculated into a 96 well plate at a density of 3000 cells/well for A549 and 5000 cells/well for H358 (all cultured under 1% FBS conditions), and grown overnight in a 5% CO2 and 37° C. incubator. Each compound was diluted with a three-fold concentration gradient, eight concentrations were tested, and three wells were set for each concentration. 20 μl of the diluted compounds was added to the corresponding cell wells. Adherent cells A549 and H358 were cultured in a 5% CO2 and 37° C. incubator for 72 hours; 20 μl of MTS was added separately and incubated for 2 hours in a 5% CO2 and 37° C. incubator. Molecular Device VersaMax was used to test the light absorption value at 490 nm (L1), with a reference wavelength of 690 nm (L2). The (L1−L2) values were plotted against different concentrations of inhibitors and IC50 was obtained by fitting the formula.
(§5) The experimental results were fitted to the IC50 using Graphpad Prism 7. The model used for fitting was log(inhibitor) vs Response—variable slop, and the results of each assay were equipped with triple replicate wells to ensure the accuracy of the experiment. The results were expressed as Standard Deviation (SD) or Standard Error (SE).

Row | IC50 [µM] | Compound
1 | 3.5 ± 0.4 | O=C(O)C1(CCCCCCC=CCCCCCCC2(C(=O)OCCc3ccc(Cl)cc3Cl)C=CCC2)C=CCC1 (stereo not shown) [Compound M19]

Same assay, conditions: Homo sapiens, NCI-H358, H358, 72 hours, 1% FBS, read-out: IC50, inhibition of proliferation, H358

Row | IC50 [µM] | Compound
2 | 9 ± 1.9 | O=C(O)C1(CCCCCC/C=C\CCCCCCC2(C(=O)OCCc3ccc4ccccc4c3)C=CCC2)C=CCC1 (stereo not shown) [Compound M29]
3 | 23.6 ± 1.9 | O=C(O)C1(CCCCCC/C=C\CCCCCCC2(C(=O)O)C=CCC2)C=CCC1 (stereo not shown) [Compound M5]
4 | 5.6 ± 0.5 | O=C(O)C1(CCCCCC/C=C\CCCCCCC2(C(=O)OCCc3ccc(F)cc3)C=CCC2)C=CCC1 (stereo not shown) [Compound M25]

Row | Compound | IC50 [µM]
5 | COC(=O)c1cc(Cl)c(O)c(S(=O)(=O)Nc2cc(-c3ccccc3)c(F)cc2F)c1 [NDI-091143, reference compound] | 50.2 ± 27.7

What follows are compounds tested against Human ACLY (Homo sapiens (Human), UniProt P53396) (assay: ACLY enzyme activity test (ADP-Glo luminescence)). Settings: 37° C., 30 minutes.
Type: biochemical
Description: • Instrument: Envision (PerkinElmer, USA) • Materials: Acl—human ACLY/acly/ATP citrate lyase protein (His tag) was purchased from Sino Biological; kinase assay kit ADP-GLO (promega #V9102).
Experimental principle: In this experiment, the ATP-dependent citrate lyase ACL catalyzes the conversion of citrate to acetyl coenzyme A, which in turn produces malonyl coenzyme A, a precursor molecule for fatty acid synthesis, and this reaction is accompanied by ATP depletion, so the change in ATP can be detected using the ADP-Glo Kinase Assay (#V9102) to indirectly reflect the inhibitory effect of the compound on the enzymatic activity of ACL. This kinase detection kit can quantitatively determine the amount of ADP catalyzed by ACLY enzyme activity. (First, the compound, the enzyme and the substrate are incubated at 37 degrees for half an hour, ADP-Glo& #V9102; reagent is added and incubated for half an hour to terminate the reaction and consume the remaining ATP; then the kinase detection reagent is added (which converts the ADP to ATP while also detecting the newly synthesized ATP using the coupled […] reaction) and incubated for half an hour. The value is read by using Envision.
Experimental method: ADP Glo luminescence method was used for determination. It reflects the activity of ACLY enzyme by quantitatively detecting the amount of ADP, and the enzymatic reaction catalyzed by ACLY is proportional to the amount of ADP detected by the luminescent signal. Firstly, the compound is diluted with 10% DMSO, and then […] of compound dilution is added to a 5 μl reaction system, so that the final reaction system has a DMSO content of 2%. The enzymatic reaction catalyzed by ACLY was carried out at 37° C. for 30 minutes. 5 μl reaction mixture contained the following components: 40 mM Tris, pH 8.0, 10 mM MgCl2, 5 mM DTT, ATP, CoA, sodium citrate, and ACLY. After the enzymatic reaction was complete, 2.5 μl of ADP Glo reagent was added to each reaction system and incubated at room temperature for 1 hour. Afterwards, 5 μl of kinase detection reagent was added and incubated at room temperature for 30 minutes. The luminous signal was detected using Envision (PerkinElmer, USA).
Data processing: For compound, the activity dose dependent relationship was tested. IC50 value was obtained by non-linear fitting of sample concentration based on sample activity. The software used for calculation was Graphpad Prism 7, and the model used for fitting was sigmoid dose response (variable slope). For most inhibitor screening models, the bottom and top of the fitting curve were set to 0 and 100. In general, each sample is set with multiple wells (n≥2) during testing, which are represented in the results as Standard Deviation (SD) or Standard Error (SE).

Sequence of Human ACLY (P53396 whole entry): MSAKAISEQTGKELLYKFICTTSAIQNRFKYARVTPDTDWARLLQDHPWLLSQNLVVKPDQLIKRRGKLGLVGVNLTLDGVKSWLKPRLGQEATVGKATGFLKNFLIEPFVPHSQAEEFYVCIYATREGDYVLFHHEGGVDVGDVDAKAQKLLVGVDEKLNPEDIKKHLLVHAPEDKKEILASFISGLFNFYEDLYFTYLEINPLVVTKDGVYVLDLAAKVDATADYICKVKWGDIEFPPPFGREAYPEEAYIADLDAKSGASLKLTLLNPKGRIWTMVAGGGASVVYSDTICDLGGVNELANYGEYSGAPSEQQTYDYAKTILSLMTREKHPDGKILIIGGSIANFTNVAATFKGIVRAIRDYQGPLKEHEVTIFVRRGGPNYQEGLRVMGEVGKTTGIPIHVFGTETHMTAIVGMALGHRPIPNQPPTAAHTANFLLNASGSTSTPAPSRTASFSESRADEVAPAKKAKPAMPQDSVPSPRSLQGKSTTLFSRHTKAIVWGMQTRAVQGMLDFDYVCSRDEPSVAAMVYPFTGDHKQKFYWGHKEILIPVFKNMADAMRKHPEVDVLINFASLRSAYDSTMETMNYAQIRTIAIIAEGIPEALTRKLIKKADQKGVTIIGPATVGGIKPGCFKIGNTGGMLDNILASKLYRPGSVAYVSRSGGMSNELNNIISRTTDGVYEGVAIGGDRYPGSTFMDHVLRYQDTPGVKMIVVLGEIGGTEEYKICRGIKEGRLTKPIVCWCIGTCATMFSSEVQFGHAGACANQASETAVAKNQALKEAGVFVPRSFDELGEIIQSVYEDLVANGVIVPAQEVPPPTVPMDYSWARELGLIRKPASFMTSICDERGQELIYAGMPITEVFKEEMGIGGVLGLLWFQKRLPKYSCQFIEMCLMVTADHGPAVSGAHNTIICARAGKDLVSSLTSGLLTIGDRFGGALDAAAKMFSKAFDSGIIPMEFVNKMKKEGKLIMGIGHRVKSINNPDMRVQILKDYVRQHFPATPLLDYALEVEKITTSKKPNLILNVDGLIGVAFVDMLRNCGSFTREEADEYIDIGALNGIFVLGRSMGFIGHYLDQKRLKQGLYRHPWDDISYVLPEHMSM

Row | IC50 [µM] | Compound
6 | 4.6 ± 1.3 | COc1ccc(CCOC(=O)C2(CCCCCC/C=C\CCCCCCC3(C(=O)O)C=CCC3)C=CCC2)cc1 (stereo not shown) [Compound M32]
7 | 5.8 ± 1.8 | O=C(O)C1(CCCCCC/C=C\CCCCCCC2(C(=O)OCCc3ccc4ccccc4c3)C=CCC2)C=CCC1 (stereo not shown) [Compound M29]
8 | 52.2 ± 0.27 | CC(CCCC/C=C/CCCCCC(C)(C(=O)O)c1ccccc1)(C(=O)O)c1ccccc1 (stereo not shown) [Compound M15]
9 | 11.2 ± 1.61 | CC(CCCC/C=C\CCCCCC(C)(C(=O)O)c1ccccc1)(C(=O)O)c1ccccc1 (stereo not shown) [Compound M9]
10 | 5.3 ± 0.98 | O=C(O)C1(CCCCCC/C=C\CCCCCCC2(C(=O)O)CC=CCC2)CC=CCC1 (stereo not shown) [Compound M6]
11 | 3.8 ± 0.83 | COC(=O)C1(CCCCCC/C=C\CCCCCCC2(C(=O)O)C=CCC2)C=CCC1 (stereo not shown) [Compound M21]
12 | 1.5 ± 0.45 | O=C(O)C1(CCCCCC/C=C\CCCCCCC2(C(=O)O)C=CCC2)C=CCC1 (stereo not shown) [Compound M5]
13 | 1.9 ± 0.2 | C=CC(C)(CCCCCC/C=C\CCCCCCCC(C)(C=C)C(=O)O)C(=O)O (stereo not shown) [Compound M10]
14 | 1.7 ± 0.3 | CC(CCCCCCC=CCCCCCCC(C)(C(=O)O)c1ccccc1)(C(=O)O)c1ccccc1 (stereo not shown) [Compound M1]
15 | 5.5 ± 1.9 | O=C(O)C1(CCCCCC/C=C\CCCCCCC2(C(=O)OCc3ccc(Cl)cc3Cl)C=CCC2)C=CCC1 (stereo not shown) [Compound M24]
16 | 3.5 ± 1.7 | CCOC(=O)C1(CCCCCC/C=C\CCCCCCC2(C(=O)O)C=CCC2)C=CCC1 (stereo not shown) [Compound M20]
17 | 3.1 ± 1.3 | O=C(O)C1(CCCCCCC=CCCCCCCC2(C(=O)OCCc3ccc(Cl)cc3Cl)C=CCC2)C=CCC1 (stereo not shown) [Compound M19]
18 | 2.7 ± 0.8 | O=C(O)C1(CCCCCC/C=C\CCCCCCCC2(C(=O)O)C=CCC2)C=CCC1 (stereo not shown) [Compound M13]
19 | 8.5 ± 3.2 | O=C(O)C1(CCCCCC/C=C\CCCCCCC2(C(=O)OCCc3ccccc3Cl)C=CCC2)C=CCC1 (stereo not shown) [Compound M31]
20 | 4 ± 0.86 | O=C(O)C1(CCCCCC/C=C\CCCCCCC2(C(=O)OCCc3ccc(F)cc3)C=CCC2)C=CCC1 (stereo not shown) [Compound M25]

Row | Compound | IC50 [µM]
21 | COC(=O)c1cc(Cl)c(O)c(S(=O)(=O)Nc2cc(-c3ccccc3)c(F)cc2F)c1 [NDI-091143, reference compound] | 0.0021 ± 0.0004

The compounds below were run on human pancreatic cancer cell MIA-PACA (assay: MTS cell proliferation assay, MIA-PACA). Settings: Homo sapiens, MIA PaCa-2, read-out: IC50, inhibition of proliferation, MIA-PACA.
Type: cell-based
Description: as §2, §3, §4, §5
(§6) Similarly, the antiproliferative assays of the compounds on pancreatic cancer cell line ASPC-1, human pancreatic cancer cell MIA-PACA and breast cancer cell MCF-7 were performed as above.

Row | IC50 [µM] | Compound
22 | 12.8 ± 1.6 | O=C(O)C1(CCCCCC/C=C\CCCCCCC2(C(=O)OCCc3ccc4ccccc4c3)C=CCC2)C=CCC1 (stereo not shown) [Compound M29]
23 | 13.5 ± 18 | O=C(O)C1(CCCCCC/C=C\CCCCCCC2(C(=O)O)C=CCC2)C=CCC1 (stereo not shown) [Compound M5]
24 | 11.9 ± 2.7 | O=C(O)C1(CCCCCC/C=C\CCCCCCC2(C(=O)OCCc3ccc(F)cc3)C=CCC2)C=CCC1 (stereo not shown) [Compound M25]

Row | Compound | IC50 [µM]
25 | COC(=O)c1cc(Cl)c(O)c(S(=O)(=O)Nc2cc(-c3ccccc3)c(F)cc2F)c1 [NDI-091143, reference compound] | 40.9 ± 14.3

Same assay, conditions: read-out: IC50, inhibition of proliferation, MIA-PACA

Row | IC50 [µM] | Compound
26 | 1.9 ± 0.5 | O=C(O)C1(CCCCCCC=CCCCCCCC2(C(=O)OCCc3ccc(Cl)cc3Cl)C=CCC2)C=CCC1 (stereo not shown) [Compound M19]

What follows are compounds tested on pancreatic cancer cell line ASPC-1 (assay: MTS cell proliferation assay, ASPC-1). Settings: ASPC-1, MTS; read-out: IC50, inhibition of proliferation, ASPC-1.
Type: cell-based
Description: as §2, §3, §4, §5, §6

Row | IC50 [µM] | Compound
27 | 2.7 ± 1 | O=C(O)C1(CCCCCCC=CCCCCCCC2(C(=O)OCCc3ccc(Cl)cc3Cl)C=CCC2)C=CCC1 (stereo not shown) [Compound M19]

Same assay, conditions: Homo sapiens, ASPC1; ASPC-1, MTS; read-out: IC50, inhibition of proliferation, ASPC-1

Row | IC50 [µM] | Compound
28 | 28 ± 10.1 | O=C(O)C1(CCCCCC/C=C\CCCCCCC2(C(=O)OCCc3ccc4ccccc4c3)C=CCC2)C=CCC1 (stereo not shown) [Compound M29]
29 | 27.3 ± 0.8 | O=C(O)C1(CCCCCC/C=C\CCCCCCC2(C(=O)O)C=CCC2)C=CCC1 (stereo not shown) [Compound M5]
30 | 29.2 ± 11.4 | O=C(O)C1(CCCCCC/C=C\CCCCCCC2(C(=O)OCCc3ccc(F)cc3)C=CCC2)C=CCC1 (stereo not shown) [Compound M25]

Row | Compound | IC50 [µM]
31 | COC(=O)c1cc(Cl)c(O)c(S(=O)(=O)Nc2cc(-c3ccccc3)c(F)cc2F)c1 [NDI-091143, reference compound] | 83.3 ± 34.7

The compounds below were run on breast cancer cell MCF-7 (assay: MTS cell proliferation assay, MCF-7). Settings: Homo sapiens, MCF7; MCF-7, MTS; read-out: IC50, inhibition of proliferation, MCF-7.
Type: cell-based
Description: as §2, §3, §4, §5, §6

Row | IC50 [µM] | Compound
32 | 6.5 ± 0.4 | O=C(O)C1(CCCCCC/C=C\CCCCCCC2(C(=O)OCCc3ccc4ccccc4c3)C=CCC2)C=CCC1 (stereo not shown) [Compound M29]
33 | 31.8 ± 1.7 | O=C(O)C1(CCCCCC/C=C\CCCCCCC2(C(=O)O)C=CCC2)C=CCC1 (stereo not shown) [Compound M5]
34 | 5.7 ± 1.5 | O=C(O)C1(CCCCCC/C=C\CCCCCCC2(C(=O)OCCc3ccc(F)cc3)C=CCC2)C=CCC1 (stereo not shown) [Compound M25]

Row | Compound | IC50 [µM]
35 | COC(=O)c1cc(Cl)c(O)c(S(=O)(=O)Nc2cc(-c3ccccc3)c(F)cc2F)c1 [NDI-091143, reference compound] | 84.8 ± 45.3

Same assay, conditions: MCF-7, MTS; read-out: IC50, inhibition of proliferation, MCF-7

Row | IC50 [µM] | Compound
36 | 3.9 ± 0.5 | O=C(O)C1(CCCCCCC=CCCCCCCC2(C(=O)OCCc3ccc(Cl)cc3Cl)C=CCC2)C=CCC1 (stereo not shown) [Compound M19]

These compounds were tested on A549 cells (assay: MTS cell proliferation assay, A549). Settings: Homo sapiens, A549, 72 hours, 1% FBS, read-out: IC50, inhibition of proliferation, A549.
Type: cell-based
Description: as §1
Experimental principle: CellTier 96 ® AQueous One Solution Cell Proliferation Assay (MTS) colorimetric method was used to detect cell proliferation. […] The amount of formazan determined by absorbance at 490 nm is directly proportional to the number of live cells in culture. […]
Cell survival rate was detected by using MTS method, that is, adherent cells growing in logarithmic phase were digested with 0.025% trypsin, and counted; 80 μl cells were inoculated into a 96 well plate at a density of 3000 cells/well for A549 and 5000 cells/well for H358 (all cultured under 1% FBS conditions), and grown overnight in a 5% CO2 and 37° C. incubator. […]
The experimental results were fitted to the IC50 using Graphpad Prism 7. […] The results were expressed as Standard Deviation (SD) or Standard Error (SE).

Row | IC50 [µM] | Compound
37 | 12.5 ± 1.2 | O=C(O)C1(CCCCCC/C=C\CCCCCCC2(C(=O)O)C=CCC2)C=CCC1 (stereo not shown) [Compound M5]
